Patent publication US6447748B1, “Benzamide compounds for cancer imaging and therapy” (Research Corporation Technologies, Inc., priority 1993, dated 2002)

What was measured:
[1] = tested on: human squamous cell carcinoma xenografts; experiment: Biodistribution in nude mice xenografted with human squamous cell carcinoma; assay type: in vivo, Balb/c nu/nu mice; conditions: for Biodistribution Blood / Biodistribution Bone / Biodistribution Brain / Biodistribution Heart / Biodistribution Intestine / Biodistribution Kidney / Biodistribution Liver / Biodistribution Lung / Biodistribution Spleen / Biodistribution Stomach / Biodistribution Thyroid / Biodistribution Tumor: nude mice, human squamous cell carcinoma, mean (std. dev.), n = 6
Method: Non-small cell lung carcinoma cell lines NCI-157, NCI-838 and NCI-1299 were obtained from the National Cancer Institute. The NCI-157 cell line is a squamous carcinoma cell line, while NCI-838 is an adenocarcinoma cell line and NCI-1299 is a large cell lung carcinoma cell. […] Suspension of 5×10^6 cells (viability greater than 95%) in 0.2 mL of medium were inoculated subcutaneously in female Balb/c nu/nu mice. After about two weeks, solid tumors of about 1 cm in diameter appeared in approximately 85% of all inoculated mice. […] Balb/c nu/nu mice (17-22 g) were injected intravenously with 0.2 ml of a saline solution containing [^125I]PAB (5-6 μCi). […] The values obtained were normalized to a mouse weighing 20 g.

[2] = tested on: human A2058 melanoma xenografts; experiment: Biodistribution in nude mice xenografted with human melanotic melanoma; assay type: in vivo, Balb/c nu/nu mice; conditions: for RATIO Tumor/Blood / RATIO Tumor/Muscle / Biodistribution Blood / Biodistribution Bone / Biodistribution Brain / Biodistribution Heart / Biodistribution Intestine / Biodistribution Kidney / Biodistribution Liver / Biodistribution Lung / Biodistribution Muscle / Biodistribution Spleen / Biodistribution Stomach / Biodistribution Thyroid / Biodistribution Tumor: nude mice, human melanotic melanoma, mean (std. dev.); for Biodistribution Blood / Biodistribution Bone / Biodistribution Brain / Biodistribution Heart / Biodistribution Intestine / Biodistribution Kidney / Biodistribution Liver / Biodistribution Lung / Biodistribution Muscle / Biodistribution Spleen / Biodistribution Stomach / Biodistribution Thyroid / Biodistribution Tumor: n = 6
Method: A2058 tumor cells, derived from a brain metastasis of human malignant melanoma (Todaro et al. 1980 Proc. Natl. Acad. Sci. USA 77:5258) were obtained from the National Institutes of Health. […] Suspension of 5×10^6 cells (viability greater than 95%) in 0.2 mL of medium were inoculated subcutaneously in female Balb/c nu/nu mice. After about two weeks, solid tumors of about 1 cm in diameter appeared in approximately 85% of all inoculated mice. […] Balb/c nu/nu mice (17-22 g) were injected intravenously with 0.2 ml of a saline solution containing [^125I]PAB (5-6 μCi). […] The values obtained were normalized to a mouse weighing 20 g. The differences between [^125I]PAB and [^125I]DAB were examined by Student's unpaired t tests.

## O=C(NCCN1CCCCC1)c1ccc([125I])cc1 [[^125I]PAB, ^125I(2-piperidinylaminoethyl)4-iodobenzamide]
[1]; 1 hr.
  Biodistribution Blood: 1.99 (0.35) % ID/g
  Biodistribution Bone: 2.03 (0.28) % ID/g
  Biodistribution Brain: 1.80 (0.17) % ID/g
  Biodistribution Heart: 2.25 (0.07) % ID/g
  Biodistribution Intestine: 12.63 (0.43) % ID/g
  Biodistribution Kidney: 6.56 (0.04) % ID/g
  Biodistribution Liver: 10.48 (1.26) % ID/g
  Biodistribution Lung: 4.91 (0.25) % ID/g
  Biodistribution Spleen: 3.97 (0.18) % ID/g
  Biodistribution Stomach: 5.57 (1.31) % ID/g
  Biodistribution Thyroid: 7.84 (0.91) % ID/g
  Biodistribution Tumor: 4.27 (0.40) % ID/g
[1]; 6 hr.
  Biodistribution Blood: 0.51 (0.03) % ID/g
  Biodistribution Bone: 0.56 (0.18) % ID/g
  Biodistribution Brain: 0.29 (0.01) % ID/g
  Biodistribution Heart: 0.49 (0.03) % ID/g
  Biodistribution Intestine: 11.41 (0.52) % ID/g
  Biodistribution Kidney: 1.61 (0.28) % ID/g
  Biodistribution Liver: 3.47 (0.23) % ID/g
  Biodistribution Lung: 1.10 (0.03) % ID/g
  Biodistribution Spleen: 0.86 (0.20) % ID/g
  Biodistribution Stomach: 3.46 (0.18) % ID/g
  Biodistribution Thyroid: 2.80 (0.49) % ID/g
  Biodistribution Tumor: 3.27 (0.33) % ID/g
[1]; 24 hr.
  Biodistribution Blood: 0.15 (0.07) % ID/g
  Biodistribution Bone: 0.02 (0.00) % ID/g
  Biodistribution Brain: 0.01 (0.00) % ID/g
  Biodistribution Heart: 0.03 (0.00) % ID/g
  Biodistribution Intestine: 0.38 (0.09) % ID/g
  Biodistribution Kidney: 0.13 (0.00) % ID/g
  Biodistribution Liver: 0.39 (0.02) % ID/g
  Biodistribution Lung: 0.08 (0.00) % ID/g
  Biodistribution Spleen: 0.05 (0.00) % ID/g
  Biodistribution Stomach: 0.20 (0.03) % ID/g
  Biodistribution Thyroid: 0.09 (0.01) % ID/g
  Biodistribution Tumor: 0.66 (0.12) % ID/g
[1]; 24 hrs. post-injection, squamous cell carcinoma xenograft
  tumor concentration relative to that of [125I]DAB: more than three-fold
[2]; 1 Hour
  RATIO Tumor/Blood: 4.16 (1.09)
  RATIO Tumor/Muscle: 7.16 (1.50)
  Biodistribution Blood: 0.967 (.168) % ID/g
  Biodistribution Bone: 0.750 (.0663) % ID/g
  Biodistribution Brain: 0.895 (.0887) % ID/g
  Biodistribution Heart: 1.14 (.207) % ID/g
  Biodistribution Intestine: 10.64 (.541) % ID/g
  Biodistribution Kidney: 3.82 (.561) % ID/g
  Biodistribution Liver: 6.36 (.770) % ID/g
  Biodistribution Lung: 2.34 (.277) % ID/g
  Biodistribution Muscle: 0.552 (.0711) % ID/g
  Biodistribution Spleen: 3.11 (.789) % ID/g
  Biodistribution Stomach: 3.23 (.697) % ID/g
  Biodistribution Thyroid: 4.23 (.594) % ID/g
  Biodistribution Tumor: 3.87 (.470) % ID/g
[2]; 6 Hour
  RATIO Tumor/Blood: 14.9 (5.07)
  RATIO Tumor/Muscle: 32.5 (12.0)
  Biodistribution Blood: 0.208 (.0542) % ID/g
  Biodistribution Bone: 0.115 (.0236) % ID/g
  Biodistribution Brain: 0.122 (.0331) % ID/g
  Biodistribution Heart: 0.167 (.0372) % ID/g
  Biodistribution Intestine: 2.46 (1.18) % ID/g
  Biodistribution Kidney: 0.483 (.131) % ID/g
  Biodistribution Liver: 1.16 (.212) % ID/g
  Biodistribution Lung: 0.387 (.0568) % ID/g
  Biodistribution Muscle: 0.0983 (.0306) % ID/g
  Biodistribution Spleen: 0.330 (.105) % ID/g
  Biodistribution Stomach: 0.757 (.298) % ID/g
  Biodistribution Thyroid: 0.583 (.203) % ID/g
  Biodistribution Tumor: 2.91 (.463) % ID/g
[2]; 24 Hour
  RATIO Tumor/Blood: 17.8 (6.10)
  RATIO Tumor/Muscle: 94.5 (32.5)
  Biodistribution Blood: 0.0617 (.018) % ID/g
  Biodistribution Bone: 0.0133 (.0052) % ID/g
  Biodistribution Brain: 0.0067 (.0052) % ID/g
  Biodistribution Heart: 0.0283 (.0075) % ID/g
  Biodistribution Intestine: 0.132 (.0852) % ID/g
  Biodistribution Kidney: 0.0850 (.016) % ID/g
  Biodistribution Liver: 0.263 (.0216) % ID/g
  Biodistribution Lung: 0.0717 (.0075) % ID/g
  Biodistribution Muscle: 0.0117 (.0041) % ID/g
  Biodistribution Spleen: 0.0383 (.015) % ID/g
  Biodistribution Stomach: 0.130 (0.881) % ID/g
  Biodistribution Thyroid: 0.100 (.143) % ID/g
  Biodistribution Tumor: 1.028 (.239) % ID/g
[2]; 24 hrs., melanoma xenograft
  amount in tumors relative to livers: about four-fold
  tumor concentration relative to that of [125I]DAB: twice
